Columns and labels:
U87MG tumor = U87MG tumor growth and survival in mice after various treatments; assay type: in vivo, nude mouse
Excerpt: In all different experimental groups (a and b in FIG. 10), the overall survival (OS) of mice treated with TMZ and compound 27 is the best. […] However, mouse death caused by glioma is reduced only 20 days […] treatment. After this period of time, the survival rates of the in-situ U87 heterogeneous tumor of the two single drug groups decreases rapidly due to malignant glioma.

U87 glioma cells = assay: Targeted metabonomics analysis of U87 cells; assay type: cell-based
Method: 1×10^7 cells (a sample cell number) were collected, and the cell supernatant was removed by means of centrifugation (1000×g, 1 minute) after quenching with a newly prepared quencher. The cells were resuspended with 100 μL of ultrapure water and mixed well. After 800 μL of cold methanol:acetonitrile (1:1, v/v) was added, the uniformly mixed cell samples were subjected to ultrasonic treatment in an ice bath for 30 minutes. The mixture was stored at −20° C. for 1 h to precipitate the protein. After centrifugation at 4° C. (14000×g, 20 minutes), the supernatant was collected, lyophilized, stored at −80° C., and then analyzed by means of […].
The lyophilized samples were resuspended in a solution (acetonitrile:water, 1:1, v/v, 100 μL) and then centrifuged at 4° C. (14000×g, 10 minutes). The supernatant (100 μL) was collected and diluted with an acetonitrile solution (100 μL), and a […] sample was loaded at 4° C. by using an Agilent 1290 Infinity liquid chromatography (LC) system (Agilent Technologies, Beijing, China) and a 5500 QTRAP mass spectrometer (Toronto of Canada, AB Sciex). At ACQUITY-UPLC-BEH column (1.7 μm, 2.1 mm×150 mm, Waters Technology (Shanghai) Co., Ltd.), chromatographic separation was performed at a flow rate of 300 μL/min, where solvent A (mobile phase) was a 15 mM ammonium acetate aqueous solution, and solvent B was acetonitrile. Chromatographic conditions of gradient elution were reduced from 90% B to 40% B, and were increased sharply from 40% B to 90% B after 18 minutes, a volume ratio of 90% B was kept for 4.9 minutes after 0.1 minute, and the duration of the whole process was 23 minutes. An equal volume of compounds was extracted from 32 actual samples so as to monitor the stability of the system, thereby being used for processing a quality control (QC) sample and put into a real sample. Mass spectrum experiments were performed in a negative ion and multi-reaction monitoring mode, and specific parameters were as follows: a source temperature of 450° C., an atomizer gas (GS1): 45, an auxiliary gas (GS2): 45, a curtain gas (CUR): 30, and an ion space voltage floating (ISVF): −4500 V.
Standard GC-MS data was processed by using analysis software (AB Sciex, Toronto, Canada), which included converting the original mass spectrum data to data containing m/z, measuring the corresponding ion intensity and retention time, and subsequent statistical analysis. Peak testing and calibration of all the samples were compared to their chemical standards (Sigma-Aldrich). […]
Statistical significance was tested by using t. *: P<0.05, **: P<0.01, and ***: P<0.005. […] The hexokinase (HK2 in cancer cells), which is the first one and serves as a rate-limiting enzyme in a glycolysis pathway was evaluated. […]

[1] = test system: U87 cell transplantation tumor (brain glioma); assay: MSI imaging of drug in brain tissue section (blood-brain barrier penetration); assay type: in vivo; conditions: MSI of brain tissue section with U87 glioma implant
Excerpt: FIG. 9 is an MSI image of a drug and a metabolite (compound 27: m/z 499, lactic acid: m/z 113) in a brain tissue section, where an optical micrograph of a serial section of H&E staining is used as a reference. The brain glioma and the lateral ventricle are represented by dashed lines, a color bar encodes signal strength of […] small molecules in […] (MSI), and the resolution is 10 μm.

## CCOc1ccc(C(=O)NCCCN(C)CCCN(C)Cc2ccccc2)cc1Br [compound 27]
U87MG tumor; U87MG subcutaneous tumor, nude mouse
  growth of solid tumors: can inhibit growth of solid tumors
U87MG tumor; in situ U87-luciferase mice, compared with PBS
  glioma growth / survival rate, bioluminescence tracking: delays the growth of glioma
U87MG tumor; mice with U87MG tumor, n=6 per group
  median survival time: 30 days
U87 glioma cells; U87 cells after treatment
  glyceraldehyde-3-phosphate accumulation relative to control group processed by PBS: approximately 3.5 times
  increase in concentration of thiamine pyrophosphate (TPP): ~2.5 times
U87 glioma cells; U87 cells after treatment, P<0.005
  glyceride-3-phosphate change: significantly reduced by nearly two orders of magnitude
U87 glioma cells; U87 cells, vs control group processed by PBS
  concentration of glucose-6-phosphate: lower than that of the control group
[1]
  capacity of penetrating a blood-brain barrier: can break through the blood-brain barrier

From patent US20230414571A1, “APPLICATION OF SMALL-MOLECULE COMPOUND IN PREPARATION OF ANTITUMOR DRUG” (SOOCHOW UNIVERSITY, priority 2021, published 2023)
